Consider 9 molecules from article PMC12621043, “Un-LOK-ing a New Approach for Conformational Selective Targeting of STK10 (LOK)” (ACS Medicinal Chemistry Letters, 2025).

Assay in all cases: DSF Tm panel
Holding throughout (format): binding
Holding throughout (conditions): 10 μM compound

One test deals with T1, EPHB3A (Homo sapiens, UniProt P54753).
T1 construct: purchased in-house DSF kinase panel (SGC-style construct names; the trailing letter is the construct ID)
T1 sequence (P54753 34-998): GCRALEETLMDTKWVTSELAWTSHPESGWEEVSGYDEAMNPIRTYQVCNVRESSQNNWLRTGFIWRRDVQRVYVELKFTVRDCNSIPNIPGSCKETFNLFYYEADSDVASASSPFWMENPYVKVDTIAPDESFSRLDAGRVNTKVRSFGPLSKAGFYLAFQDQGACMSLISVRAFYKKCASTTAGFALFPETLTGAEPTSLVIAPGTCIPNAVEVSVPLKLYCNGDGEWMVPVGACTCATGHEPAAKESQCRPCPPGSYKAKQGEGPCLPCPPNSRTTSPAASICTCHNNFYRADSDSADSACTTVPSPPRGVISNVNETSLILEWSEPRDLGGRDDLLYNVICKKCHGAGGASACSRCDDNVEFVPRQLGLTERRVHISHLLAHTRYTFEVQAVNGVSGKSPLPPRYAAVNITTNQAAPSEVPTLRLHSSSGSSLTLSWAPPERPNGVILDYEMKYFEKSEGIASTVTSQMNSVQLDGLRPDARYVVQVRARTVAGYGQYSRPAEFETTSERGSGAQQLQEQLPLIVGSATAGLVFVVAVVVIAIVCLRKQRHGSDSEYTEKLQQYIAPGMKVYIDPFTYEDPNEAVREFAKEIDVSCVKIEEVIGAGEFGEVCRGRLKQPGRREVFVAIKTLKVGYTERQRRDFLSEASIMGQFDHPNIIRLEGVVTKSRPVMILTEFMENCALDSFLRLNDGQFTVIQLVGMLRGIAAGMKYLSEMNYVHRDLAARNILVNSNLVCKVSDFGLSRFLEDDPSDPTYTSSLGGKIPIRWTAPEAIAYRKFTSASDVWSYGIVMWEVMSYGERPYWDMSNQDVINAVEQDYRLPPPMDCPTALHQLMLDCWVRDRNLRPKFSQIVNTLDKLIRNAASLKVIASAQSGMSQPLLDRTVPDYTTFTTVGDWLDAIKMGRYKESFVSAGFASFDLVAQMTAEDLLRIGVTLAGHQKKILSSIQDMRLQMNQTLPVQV

Another test concerns the target T2, CSNK1DA (Homo sapiens, UniProt P48730).
T2 construct: purchased in-house DSF kinase panel (SGC-style construct names; the trailing letter is the construct ID)
T2 sequence (P48730 1-294): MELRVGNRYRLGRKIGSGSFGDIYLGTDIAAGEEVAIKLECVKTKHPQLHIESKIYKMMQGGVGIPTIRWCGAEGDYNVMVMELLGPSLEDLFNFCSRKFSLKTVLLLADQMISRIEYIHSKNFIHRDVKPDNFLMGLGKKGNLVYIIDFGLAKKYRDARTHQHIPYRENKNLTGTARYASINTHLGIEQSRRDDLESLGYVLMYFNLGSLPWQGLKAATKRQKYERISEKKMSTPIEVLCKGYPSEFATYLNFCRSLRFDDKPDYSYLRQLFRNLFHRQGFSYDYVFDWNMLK

For a further test, the target named is T3, EPHA2 (EPHA2A) (Homo sapiens, UniProt P29317).
T3 construct: purchased in-house DSF kinase panel (SGC-style construct names; the trailing letter is the construct ID)
T3 sequence (P29317 596-900): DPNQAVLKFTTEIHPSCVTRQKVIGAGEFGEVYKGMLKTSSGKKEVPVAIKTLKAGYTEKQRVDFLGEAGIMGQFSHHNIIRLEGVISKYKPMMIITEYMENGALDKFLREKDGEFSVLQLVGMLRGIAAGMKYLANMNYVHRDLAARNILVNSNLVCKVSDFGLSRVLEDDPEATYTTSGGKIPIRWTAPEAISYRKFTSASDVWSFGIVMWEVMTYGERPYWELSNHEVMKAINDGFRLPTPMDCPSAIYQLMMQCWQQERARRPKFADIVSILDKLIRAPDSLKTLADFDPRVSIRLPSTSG

In a further test the target is T4, MARK4A (Homo sapiens, UniProt Q96L34).
T4 construct: purchased in-house DSF kinase panel (SGC-style construct names; the trailing letter is the construct ID)
T4 sequence (Q96L34 59-310): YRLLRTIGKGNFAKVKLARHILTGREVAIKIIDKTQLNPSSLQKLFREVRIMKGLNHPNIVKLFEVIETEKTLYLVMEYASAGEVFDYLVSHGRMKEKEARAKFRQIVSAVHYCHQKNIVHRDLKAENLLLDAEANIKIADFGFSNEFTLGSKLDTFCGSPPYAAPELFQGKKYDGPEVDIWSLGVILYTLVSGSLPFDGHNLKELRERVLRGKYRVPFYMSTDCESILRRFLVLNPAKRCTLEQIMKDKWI

The target in another test is T5, FESA (Homo sapiens, UniProt P07332).
T5 construct: purchased in-house DSF kinase panel (SGC-style construct names; the trailing letter is the construct ID)
T5 sequence (P07332 whole entry): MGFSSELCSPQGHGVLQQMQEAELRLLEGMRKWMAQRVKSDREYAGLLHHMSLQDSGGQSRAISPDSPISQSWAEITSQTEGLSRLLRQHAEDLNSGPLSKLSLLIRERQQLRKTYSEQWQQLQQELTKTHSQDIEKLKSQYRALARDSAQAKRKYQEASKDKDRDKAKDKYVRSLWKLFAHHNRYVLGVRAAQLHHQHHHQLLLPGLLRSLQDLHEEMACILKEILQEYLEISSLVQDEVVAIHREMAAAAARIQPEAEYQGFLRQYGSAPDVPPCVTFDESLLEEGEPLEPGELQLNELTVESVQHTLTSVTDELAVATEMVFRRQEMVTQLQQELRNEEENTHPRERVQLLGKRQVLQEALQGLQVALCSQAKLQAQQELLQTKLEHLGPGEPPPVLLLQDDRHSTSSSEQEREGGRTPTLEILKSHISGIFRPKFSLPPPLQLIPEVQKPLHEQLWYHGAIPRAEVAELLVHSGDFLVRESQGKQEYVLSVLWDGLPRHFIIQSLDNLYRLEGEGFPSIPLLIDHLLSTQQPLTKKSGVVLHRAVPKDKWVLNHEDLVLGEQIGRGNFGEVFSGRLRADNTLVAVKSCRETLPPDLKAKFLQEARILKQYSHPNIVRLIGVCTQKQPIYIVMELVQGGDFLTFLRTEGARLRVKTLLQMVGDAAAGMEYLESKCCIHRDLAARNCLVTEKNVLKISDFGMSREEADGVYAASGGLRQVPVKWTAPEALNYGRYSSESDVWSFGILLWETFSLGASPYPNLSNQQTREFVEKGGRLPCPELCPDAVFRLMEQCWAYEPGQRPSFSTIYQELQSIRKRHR

The target in a further test is T6, GSG2A (Homo sapiens, UniProt Q8TF76).
T6 construct: purchased in-house DSF kinase panel (SGC-style construct names; the trailing letter is the construct ID)
T6 sequence (Q8TF76 465-798): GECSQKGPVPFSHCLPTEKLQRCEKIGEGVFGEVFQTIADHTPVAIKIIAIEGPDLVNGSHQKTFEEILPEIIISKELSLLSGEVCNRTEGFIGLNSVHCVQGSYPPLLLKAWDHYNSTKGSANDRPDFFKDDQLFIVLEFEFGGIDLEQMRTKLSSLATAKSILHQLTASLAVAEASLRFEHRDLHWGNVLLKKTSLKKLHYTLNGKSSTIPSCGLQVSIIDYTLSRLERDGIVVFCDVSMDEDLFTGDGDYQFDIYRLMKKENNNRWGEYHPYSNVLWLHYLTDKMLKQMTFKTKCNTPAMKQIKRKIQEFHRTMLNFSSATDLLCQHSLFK

The next test has as its target T7, MAPK10A (Homo sapiens, UniProt P53779).
T7 construct: purchased in-house DSF kinase panel (SGC-style construct names; the trailing letter is the construct ID)

A further test addresses SLK (Homo sapiens, UniProt Q9H2G2). Details: purchased in-house DSF kinase panel (SGC-style construct names; the trailing letter is the construct ID).
The next test has as its system CDC42BPAA.
The target of the next test is T8, STK3 (STK3A) (Homo sapiens, UniProt Q13188).
T8 construct: purchased in-house DSF kinase panel (SGC-style construct names; the trailing letter is the construct ID)
T8 sequence (Q13188 16-313): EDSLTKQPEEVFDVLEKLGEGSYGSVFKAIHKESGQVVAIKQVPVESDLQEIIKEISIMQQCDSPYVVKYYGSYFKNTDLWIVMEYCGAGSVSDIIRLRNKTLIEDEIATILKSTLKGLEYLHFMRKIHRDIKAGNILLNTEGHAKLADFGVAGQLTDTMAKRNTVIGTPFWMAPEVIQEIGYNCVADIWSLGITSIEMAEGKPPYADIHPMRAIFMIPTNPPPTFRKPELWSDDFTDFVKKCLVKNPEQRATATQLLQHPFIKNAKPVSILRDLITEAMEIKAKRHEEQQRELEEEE

The target of a further test is T9, MAPK14A (Homo sapiens, UniProt Q16539).
T9 construct: purchased in-house DSF kinase panel (SGC-style construct names; the trailing letter is the construct ID)
T9 sequence (Q16539 whole entry): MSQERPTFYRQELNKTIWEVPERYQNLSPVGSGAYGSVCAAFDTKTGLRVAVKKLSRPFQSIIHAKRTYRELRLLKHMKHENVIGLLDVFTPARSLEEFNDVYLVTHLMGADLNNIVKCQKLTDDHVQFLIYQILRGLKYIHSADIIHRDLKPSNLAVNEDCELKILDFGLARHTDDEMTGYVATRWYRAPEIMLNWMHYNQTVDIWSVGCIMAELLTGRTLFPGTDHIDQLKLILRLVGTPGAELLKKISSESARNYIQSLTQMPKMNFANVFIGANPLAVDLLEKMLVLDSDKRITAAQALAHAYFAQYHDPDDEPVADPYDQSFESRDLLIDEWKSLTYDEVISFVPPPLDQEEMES

The target in another test is T10, BMP2KA (Homo sapiens, UniProt Q9NSY1).
T10 construct: purchased in-house DSF kinase panel (SGC-style construct names; the trailing letter is the construct ID)
T10 sequence (Q9NSY1 38-345): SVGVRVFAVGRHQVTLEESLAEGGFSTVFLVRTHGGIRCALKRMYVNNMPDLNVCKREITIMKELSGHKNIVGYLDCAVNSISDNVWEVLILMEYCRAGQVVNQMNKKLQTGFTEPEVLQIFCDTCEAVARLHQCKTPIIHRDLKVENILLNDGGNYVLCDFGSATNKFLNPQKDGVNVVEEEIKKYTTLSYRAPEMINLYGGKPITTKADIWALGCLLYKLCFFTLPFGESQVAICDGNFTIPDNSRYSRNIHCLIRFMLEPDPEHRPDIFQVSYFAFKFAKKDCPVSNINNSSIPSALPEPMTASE

The target of the next test is T11, CAMK2DA (Homo sapiens, UniProt Q13557).
T11 construct: purchased in-house DSF kinase panel (SGC-style construct names; the trailing letter is the construct ID)
T11 sequence (Q13557 11-309): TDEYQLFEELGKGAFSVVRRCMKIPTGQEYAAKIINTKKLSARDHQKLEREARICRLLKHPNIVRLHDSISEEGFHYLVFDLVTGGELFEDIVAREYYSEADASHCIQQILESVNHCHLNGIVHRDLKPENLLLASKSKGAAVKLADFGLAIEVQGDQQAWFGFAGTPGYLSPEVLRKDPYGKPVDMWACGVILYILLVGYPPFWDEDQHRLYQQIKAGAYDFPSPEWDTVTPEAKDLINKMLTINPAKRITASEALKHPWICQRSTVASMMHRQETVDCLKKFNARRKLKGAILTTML

T7 sequence (P53779 39-402): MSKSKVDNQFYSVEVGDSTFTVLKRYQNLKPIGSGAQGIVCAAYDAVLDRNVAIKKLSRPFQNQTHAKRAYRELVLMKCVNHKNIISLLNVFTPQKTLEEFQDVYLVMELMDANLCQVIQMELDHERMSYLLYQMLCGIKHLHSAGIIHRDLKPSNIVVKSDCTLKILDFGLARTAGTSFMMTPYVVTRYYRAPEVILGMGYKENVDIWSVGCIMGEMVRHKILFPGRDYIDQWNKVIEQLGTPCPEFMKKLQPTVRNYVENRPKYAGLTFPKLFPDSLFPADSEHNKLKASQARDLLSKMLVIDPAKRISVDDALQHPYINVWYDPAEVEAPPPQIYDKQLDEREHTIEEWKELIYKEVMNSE

For orientation: ΔTm means the change in melting temperature against a reference sample. Regarding `O=C(NCc1ccccc1)Nc1ccc2cc1OCCOCCNc1ccn3ncc-2c3n1` [compound 16], the ΔTm at 10 µM was 0.8 °C at EPHB3A; 0.7 °C at CSNK1DA; 0.8 °C at EPHA2 (EPHA2A); 1.7 °C at MARK4A; 3 °C at FESA; 0.5 °C at GSG2A. The ΔTm at 10 µM at MAPK10A is -0.3 °C; on SLK, 4.4 °C; at STK3 (STK3A) it was 5.9 °C; on MAPK14A it was -0.6 °C; on BMP2KA, 12.2 °C; on CAMK2DA, 0.2 °C. The “ΔTm CDC42BPAA” value in the test on CDC42BPAA was -0,2 °C.

In the case of `O=C(NCc1ccccc1Cl)Nc1ccc2cc1OCCOCCNc1ccn3ncc-2c3n1` [compound 17], the ΔTm at 10 µM is 0.3 °C on EPHB3A; 0.6 °C at CSNK1DA; 0.5 °C at EPHA2 (EPHA2A); 2.2 °C at MARK4A; 0.2 °C on FESA; -0.3 °C at GSG2A. For the same molecule, the ΔTm at 10 µM was 0.2 °C on MAPK10A; 4.8 °C on SLK; 6.2 °C at STK3 (STK3A); 0 °C at MAPK14A; 9.2 °C at BMP2KA; 0.4 °C on CAMK2DA. Also, the “ΔTm CDC42BPAA” value in the test with CDC42BPAA was 0,1 °C.

As for `O=C(NCc1cccc(Cl)c1)Nc1ccc2cc1OCCOCCNc1ccn3ncc-2c3n1` [compound 18], the ΔTm at 10 µM at EPHB3A came out at 0.2 °C; on CSNK1DA, 0.4 °C; on EPHA2 (EPHA2A), 0.6 °C; on MARK4A it was 1.4 °C; on FESA, 0.1 °C; on GSG2A, 0 °C. Further, the ΔTm at 10 µM at MAPK10A came to 0.6 °C; on SLK, 4.7 °C; on STK3 (STK3A) it was 8 °C; at MAPK14A, 0.3 °C; at BMP2KA it was 8.7 °C; at CAMK2DA, 0.5 °C. In the test on CDC42BPAA, the “ΔTm CDC42BPAA” value was 0,0 °C.

In the case of `O=C(NCc1ccc(Cl)cc1)Nc1ccc2cc1OCCOCCNc1ccn3ncc-2c3n1` [compound 19], the ΔTm at 10 µM on EPHB3A is -0.1 °C; at CSNK1DA, 0.4 °C; at EPHA2 (EPHA2A) it was 0.2 °C; on MARK4A it was 2 °C; at FESA it was 0.4 °C; at GSG2A it was -0.2 °C. Also, the ΔTm at 10 µM at MAPK10A was 0.8 °C; at SLK, 5.2 °C; on STK3 (STK3A), 6.7 °C; at MAPK14A, 0.1 °C; at BMP2KA, 9.8 °C; on CAMK2DA, -0.1 °C. Further, in the test on CDC42BPAA, the “ΔTm CDC42BPAA” value was 0,0 °C.

`O=C(NCc1ccc(Cl)cc1Cl)Nc1ccc2cc1OCCOCCNc1ccn3ncc-2c3n1` [compound 20]: the ΔTm at 10 µM on EPHB3A is 0.1 °C; on CSNK1DA, 0.4 °C; on EPHA2 (EPHA2A) it was 0.4 °C; on MARK4A it was 2 °C; on FESA it was 0.5 °C; on GSG2A, 0 °C. The ΔTm at 10 µM at MAPK10A was 1.6 °C; at SLK, 5.8 °C; at STK3 (STK3A), 8 °C; at MAPK14A, 0.8 °C; on BMP2KA, 6.7 °C; on CAMK2DA it was 0.9 °C. The “ΔTm CDC42BPAA” value in the test on CDC42BPAA is 0,7 °C.

On to `O=C(NCc1ccc(Cl)cc1F)Nc1ccc2cc1OCCOCCNc1ccn3ncc-2c3n1` [compound 21], for which the ΔTm at 10 µM is -0.4 °C at EPHB3A; 0 °C at CSNK1DA; 0.5 °C on EPHA2 (EPHA2A); 2.6 °C on MARK4A; 0.6 °C at FESA; 0.1 °C at GSG2A. For the same molecule, the ΔTm at 10 µM at MAPK10A turned out to be 1.4 °C; at SLK it was 5.7 °C; at STK3 (STK3A) it was 6.9 °C; at MAPK14A, 0.5 °C; on BMP2KA it was 7.5 °C; at CAMK2DA, 0.8 °C. Moreover, in the test with CDC42BPAA, the “ΔTm CDC42BPAA” value was 0,4 °C.

Take `Cc1cc(Cl)ccc1CNC(=O)Nc1ccc2cc1OCCOCCNc1ccn3ncc-2c3n1` [compound 23]: the ΔTm at 10 µM on EPHB3A was 0.9 °C; at CSNK1DA it was 1.2 °C; on EPHA2 (EPHA2A) it was 0.5 °C; on MARK4A, 1.5 °C; at FESA, 0.5 °C; at GSG2A, -0.1 °C. Moreover, the ΔTm at 10 µM on MAPK10A worked out at 1 °C; at SLK, 3.5 °C; at STK3 (STK3A), 9.1 °C; on MAPK14A it was 0.3 °C; on BMP2KA, 5.9 °C; at CAMK2DA, 1.7 °C. Further, in the test with CDC42BPAA, the “ΔTm CDC42BPAA” value is 0,6 °C.

Turning to `Cc1cc(Br)ccc1CNC(=O)Nc1ccc2cc1OCCOCCNc1ccn3ncc-2c3n1` [compound 24], the ΔTm at 10 µM stood at 0.7 °C on EPHB3A; 0.2 °C on CSNK1DA; 0.2 °C at EPHA2 (EPHA2A); 1.9 °C at MARK4A; 0.5 °C at FESA; 0 °C at GSG2A. For the same molecule, the ΔTm at 10 µM at MAPK10A turned out to be 0.5 °C; on SLK, 2.9 °C; at STK3 (STK3A), 3.8 °C; at MAPK14A, 2 °C; at BMP2KA, 6.7 °C; at CAMK2DA, 2.2 °C. Moreover, the “ΔTm CDC42BPAA” value with CDC42BPAA is 0,7 °C.

`COc1ccc(CNC(=O)Nc2ccc3cc2OCCOCCNc2ccn4ncc-3c4n2)cc1` [compound 31]: the ΔTm at 10 µM turned out to be 0.8 °C at EPHB3A; 0.1 °C at CSNK1DA; 0.4 °C on EPHA2 (EPHA2A); 2 °C on MARK4A; 0.8 °C at FESA; 1.2 °C on GSG2A. Also, the ΔTm at 10 µM on MAPK10A is 0.7 °C; on STK3 (STK3A) it was 4.4 °C; on MAPK14A it was 1.5 °C; at BMP2KA, 12 °C; on CAMK2DA it was 2.8 °C. For the same molecule, the “ΔTm CDC42BPAA” value in the test with CDC42BPAA was 0,0 °C.
